The source of these data is US10280149B2, “Therapeutic compounds and uses thereof” (GENENTECH, INC., priority 2015, dated 2019).

Each structure is given as a SMILES string. Counter-ions that a name gives are not always drawn.

Sequence of Full length KDM2B (Q8NHM5 whole entry): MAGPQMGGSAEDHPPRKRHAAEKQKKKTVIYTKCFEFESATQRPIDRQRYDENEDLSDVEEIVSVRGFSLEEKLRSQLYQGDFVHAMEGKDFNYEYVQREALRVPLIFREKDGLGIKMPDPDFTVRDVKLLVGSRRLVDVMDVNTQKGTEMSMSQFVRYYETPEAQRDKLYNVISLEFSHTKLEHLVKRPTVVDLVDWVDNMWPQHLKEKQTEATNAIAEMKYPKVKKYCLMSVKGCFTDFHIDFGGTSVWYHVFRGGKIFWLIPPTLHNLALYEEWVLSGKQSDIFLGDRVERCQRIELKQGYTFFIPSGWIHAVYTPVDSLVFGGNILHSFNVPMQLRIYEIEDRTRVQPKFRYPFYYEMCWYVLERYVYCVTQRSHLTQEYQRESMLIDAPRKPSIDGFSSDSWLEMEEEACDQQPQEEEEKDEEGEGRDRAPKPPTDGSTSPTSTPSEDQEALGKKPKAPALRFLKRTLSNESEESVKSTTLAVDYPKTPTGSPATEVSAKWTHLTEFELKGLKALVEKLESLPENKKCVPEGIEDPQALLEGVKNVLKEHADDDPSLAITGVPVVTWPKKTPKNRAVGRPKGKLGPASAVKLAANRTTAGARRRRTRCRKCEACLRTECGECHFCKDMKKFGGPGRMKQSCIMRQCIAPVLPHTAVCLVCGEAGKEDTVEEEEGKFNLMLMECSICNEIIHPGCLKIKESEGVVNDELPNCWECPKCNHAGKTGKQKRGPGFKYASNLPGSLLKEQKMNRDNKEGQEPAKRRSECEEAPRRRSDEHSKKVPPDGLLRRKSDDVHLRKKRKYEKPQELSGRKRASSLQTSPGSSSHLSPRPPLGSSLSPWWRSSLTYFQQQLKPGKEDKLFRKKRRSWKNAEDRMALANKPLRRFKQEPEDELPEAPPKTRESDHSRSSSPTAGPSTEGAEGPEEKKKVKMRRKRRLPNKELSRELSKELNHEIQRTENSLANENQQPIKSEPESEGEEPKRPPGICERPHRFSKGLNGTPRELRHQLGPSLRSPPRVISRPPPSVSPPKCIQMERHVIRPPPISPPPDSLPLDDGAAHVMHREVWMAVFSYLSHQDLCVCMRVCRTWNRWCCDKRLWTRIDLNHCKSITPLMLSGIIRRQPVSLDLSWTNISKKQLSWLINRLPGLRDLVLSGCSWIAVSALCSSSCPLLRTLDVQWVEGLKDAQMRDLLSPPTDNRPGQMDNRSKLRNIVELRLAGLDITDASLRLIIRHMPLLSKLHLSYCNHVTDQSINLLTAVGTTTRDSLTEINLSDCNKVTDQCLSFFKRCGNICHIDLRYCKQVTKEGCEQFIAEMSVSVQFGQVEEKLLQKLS

For this assay, the target named is Full length KDM2B (Homo sapiens (Human), UniProt Q8NHM5). In words: KDM2B TR-FRET assay for determining inhibitor IC50. Format: biochemical. To be noted: TR-FRET (HTRF), biotin-H3K36me2 peptide substrate, 2-OG 0.3 μM or 6 μM. The source says:
KDM2B TR-FRET Assay for Determining Inhibitor IC50
The KDM2B TR-FRET Assay described above represents an additional embodiment of the invention.
For orientation: IC50 means the concentration at which inhibition is half-maximal. Higher therefore signals a need for much substance. As for `O=C(c1ccc2ccccc2c1F)C1CCCN(CC2CC2)C1` (stereo not drawn) [Example 128, (1-(cyclopropylmethyl)piperidin-3-yl)(1-fluoronaphthalen-2-yl)methanone], half-maximal inhibition (IC50) required 0.133 µM.
Turning to `CCCN1CCCC(C(=O)c2ccc(C)c(C)c2)C1` (stereo not drawn) [Example 106, (3,4-dimethylphenyl)-(1-propyl-3-piperidyl)methanone], half-maximal inhibition (IC50) was put at 0.247 µM. This IC50 lies about 1.9-fold higher than the previous one.
Molecule `COc1ccc2cc(C(=O)C3CCCN(CC4CC4)C3)ccc2c1CC#N` (stereo not drawn) [Example 53, 2-[6-[1-(cyclopropylmethyl)piperidine-3-carbonyl]-2-methoxy-1-naphthyl]acetonitrile] returned an IC50 of 0.0335 µM.
Take `O=C(c1cccc(Oc2ccc(F)cc2)c1)C1CCCN(CC2CC2)C1` (stereo not drawn) [Example 27, [1-(cyclopropylmethyl)-3-piperidyl]-[3-(4-fluorophenoxy)phenyl]methanone]: the IC50 turned out to be 0.221 µM.
As to `CCCN1CC[C@@H](C)[C@@H](C(=O)c2ccc3c(CC#N)c(OC)ccc3c2)C1` (stereo in doubt) [Example 181a, 2-(2-methoxy-6-(4-methyl-1-propylpiperidine-3-carbonyl)naphthalen-1-yl)acetonitrile], the IC50 is 1.3 µM.
`COc1cccc2cc(C(=O)[C@@H]3CN(CC4CC4)CC[C@@H]3C)ccc12` (single isomer, unassigned) [Example 136b, (1-(cyclopropylmethyl)-4-methylpiperidin-3-yl)(5-methoxynaphthalen-2-yl)methanone]: the IC50 worked out at 1.2 µM. This IC50 and that of the molecule before are within 1.5-fold of each other.
Under `COc1ccc2cc(C(=O)C3CCCN(CC4CC4)C3)ccc2c1C` (stereo not drawn) [Example 49, [1-(cyclopropylmethyl)-3-piperidyl]-(6-methoxy-5-methyl-2-naphthyl)methanone] stands 0.163 µM; under `CCCN1CC[C@@H](C)[C@H](C(=O)c2ccc3cc(C#N)ccc3c2)C1` (stereo in doubt) [Example 163b, 6-(4-methyl-1-propylpiperidine-3-carbonyl)-2-naphthonitrile], 0.0454 µM.
Regarding `O=C(c1cccc(Cl)c1)[C@H]1CCCN(CC2CC2)C1` (stereo in doubt) [Example 118b, (3-chlorophenyl)(1-(cyclopropylmethyl)piperidin-3-yl)methanone], the IC50 turned out to be 0.661 µM.
`COc1ccc2cc(C(=O)C3CCCN(CC4CC4)C3)ccc2c1CO` (stereo not drawn) [Example 188, (1-(cyclopropylmethyl)piperidin-3-yl)(5-(hydroxymethyl)-6-methoxynaphthalen-2-yl)methanone hydrochloride] displayed an IC50 of 0.133 µM.
In turn, `CCCN1CCCC(C(=O)c2ccc(C(F)(F)F)cc2)C1` (stereo not drawn) [Example 100, (1-propyl-3-piperidyl)-[4-(trifluoromethyl)phenyl]methanone] registered an IC50 of 1.2 µM.
The molecule `CCC[C@H]1CCN(C2CCC2)C[C@@H]1C(=O)c1ccc2cc(OC)ccc2c1` (single isomer, unassigned) [Example 140b, (1-cyclobutyl-4-propylpiperidin-3-yl)(6-methoxynaphthalen-2-yl)methanone] yielded an IC50 of 0.328 µM.
Regarding `O=C(c1ccccc1Cl)C1CCCN(CC2CC2)C1` (stereo not drawn) [Example 113, (2-chlorophenyl)(1-(cyclopropylmethyl)piperidin-3-yl)methanone], the IC50 is 5.4 µM.
Regarding `COc1cc2ccc(C(=O)C3CCCN(CC4CC4)C3)cc2cn1` (stereo not drawn) [Example 121, (1-(cyclopropylmethyl)piperidin-3-yl)(3-methoxyisoquinolin-7-yl)methanone], the IC50 amounted to 0.38 µM. Against the preceding molecule, the IC50 is about 14-fold lower.
`COc1ccc2cc(C(=O)C3CN(C4CCC4)CCN3C)ccc2c1` (stereo not drawn) [Example 194, (4-cyclobutyl-1-methyl-piperazin-2-yl)-(6-methoxy-2-naphthyl)methanone]: the IC50 turned out to be 1.7 µM.
In the case of `COc1ccc2cc(C(=O)[C@@H]3CCCN(C4CCC4)C3)ccc2c1CC#N` (stereo in doubt) [Example 179b, 2-(6-(1-cyclobutylpiperidine-3-carbonyl)-2-methoxynaphthalen-1-yl)acetonitrile], it took 0.361 µM to reach half-maximal inhibition (IC50).
Molecule `COc1ccc2cc(C(=O)[C@H]3CCCN(C4CCC4)C3)ccc2c1CC#N` (stereo in doubt) [Example 179a, 2-(6-(1-cyclobutylpiperidine-3-carbonyl)-2-methoxynaphthalen-1-yl)acetonitrile] came in with an IC50 of 0.00565 µM. Against the preceding molecule, the IC50 is about 64-fold lower.
As to `COc1ccc2cc(C(=O)C3CN(C4CCC4)CCN3CC3CC3)ccc2c1` (stereo not drawn) [Example 192, [4-cyclobutyl-1-(cyclopropylmethyl)piperazin-2-yl]-(6-methoxy-2-naphthyl)methanone], the IC50 was determined as 0.385 µM. Compared with the last molecule, the IC50 is about 68-fold higher.
Molecule `O=C(c1cc(CO)c2ccccc2c1)C1CCCN(C2CCCC2)C1` (stereo not drawn) [Example 57, (1-cyclopentyl-3-piperidyl)-[4-(hydroxymethyl)-2-naphthyl]methanone] yielded an IC50 of 0.125 µM.
Take `O=C(c1cccc2ccccc12)C1CCCN(CC2CC2)C1` (stereo not drawn) [Example 126, (1-(cyclopropylmethyl)piperidin-3-yl)(naphthalen-1-yl)methanone]: the IC50 was determined as 3.8 µM.
As for `Cc1noc2cc(C(=O)C3CCCN(CC4CC4)C3)ccc12` (stereo not drawn) [Example 129, (1-(cyclopropylmethyl)piperidin-3-yl)(3-methylbenzo[d]isoxazol-6-yl)methanone], the IC50 was determined as 0.492 µM.
In turn, `COc1ccc2cc(C(=O)C3CN(C4CCC4)CCN3Cc3ccccc3C#N)ccc2c1` (stereo not drawn) [Example 195, 2-[[4-cyclobutyl-2-(6-methoxynaphthalene-2-carbonyl)piperazin-1-yl]methyl]benzonitrile] had an IC50 of 0.176 µM.
`O=C(c1ccc2cc(CO)ccc2c1)C1CCCN(CC2CC2)C1` (stereo not drawn) [Example 152, (1-(cyclopropylmethyl)piperidin-3-yl)(6-(hydroxymethyl)naphthalen-2-yl)methanone]: the IC50 turned out to be 0.234 µM. The IC50 values of the last two molecules are within 1.5-fold of each other.
The molecule `O=C(c1ccc(Oc2ccccc2)cc1)C1CCCN(CC2CC2)C1` (stereo not drawn) [Example 23, [1-(cyclopropylmethyl)-3-piperidyl]-(4-phenoxyphenyl)methanone] gave an IC50 of 2.1 µM.
Consider `COc1ccc2cc(C(=O)C3CCCN(CC4CCC4)C3)ccc2c1` (stereo not drawn) [Example 69, [1-(cyclobutylmethyl)-3-piperidyl]-(6-methoxy-2-naphthyl)methanone], for which the IC50 came to 0.15 µM.
Under `CCCN1CCCC(C(=O)c2ccccc2OC)C1` (stereo not drawn) [Example 99, (2-methoxyphenyl)-(1-propyl-3-piperidyl)methanone] stands 5.5 µM; under `COc1ccc2cc(C(=O)C3CN(C4CCC4)CCN3Cc3cccc(C(F)(F)F)c3)ccc2c1` (stereo not drawn) [Example 198, [4-cyclobutyl-1-[[3-(trifluoromethyl)phenyl]methyl]piperazin-2-yl]-(6-methoxy-2-naphthyl)methanone], 0.302 µM.
The molecule `Cc1c(C#N)ccc2cc(C(=O)C3CCCN(C4CCCC4)C3)ccc12` (stereo not drawn) [Example 73, 6-(1-cyclopentylpiperidine-3-carbonyl)-1-methyl-2-naphthonitrile] registered an IC50 of 0.327 µM.
Regarding `CCCN1CCCC(C(=O)c2ccc(OC(F)(F)F)cc2)C1` (stereo not drawn) [Example 103, (1-propyl-3-piperidyl)-[4-(trifluoromethoxy)phenyl]methanone], the IC50 amounted to 2 µM.
As to `COc1ccc2cc(C(=O)C3CN(CC4CC4)CCC3C(F)(F)F)ccc2c1` (single isomer, unassigned) [Example 138a, (1-(cyclopropylmethyl)-4-(trifluoromethyl)piperidin-3-yl)(6-methoxynaphthalen-2-yl)methanone], the IC50 came to 0.137 µM.
Under `COc1ccc2cc(C(=O)[C@H]3CCCN(C4CCCC4)C3)ccc2c1` [Example 10, [(3S)-1-cyclopentyl-3-piperidyl]-(6-methoxy-2-naphthyl)methanone] stands 0.0566 µM; under `COc1ccc2cc(C(=O)C3CN(C4CCC4)CCN3Cc3ccc(C)cc3)ccc2c1` (stereo not drawn) [Example 196, [4-cyclobutyl-1-(p-tolylmethyl)piperazin-2-yl]-(6-methoxy-2-naphthyl)methanone], 0.138 µM.
On to `COc1ccc2cc(C(=O)[C@H]3CCCN(CC4CC4)C3)ccc2c1` [Example 8, [(3S)-1-(cyclopropylmethyl)-3-piperidyl]-(6-methoxy-2-naphthyl)methanone], for which inhibition was half-maximal at 2.7 µM (IC50).
The molecule `CCCN1CCCC(C(=O)c2ccc3cc(OC)ccc3c2)C1` (stereo not drawn) [Example 18, (6-methoxy-2-naphthyl)-(1-propyl-3-piperidyl)methanone] yielded an IC50 of 0.161 µM. Against the preceding molecule, the IC50 is about 17-fold lower.
Molecule `COc1ccc2cc(C(=O)C3CCCN(C(C)C)C3)ccc2c1` (stereo not drawn) [Example 81, (1-isopropyl-3-piperidyl)-(6-methoxy-2-naphthyl)methanone] registered an IC50 of 6.5 µM.
In turn, `N#Cc1ccc2cc(C(=O)C3CCCN(CC4CC4)C3)ccc2c1` (stereo not drawn) [Example 159, 6-(1-(cyclopropylmethyl)piperidine-3-carbonyl)-2-naphthonitrile] displayed an IC50 of 0.0688 µM.
`N#Cc1cc(C(=O)C2CCCN(CC3CC3)C2)cc2ccccc12` (stereo not drawn) [Example 43, 3-[1-(cyclopropylmethyl)piperidine-3-carbonyl]naphthalene-1-carbonitrile] yielded an IC50 of 0.143 µM.
Molecule `O=C(c1ccc2cc(CO)ccc2c1)C1CCCN(C2CCCC2)C1` (stereo not drawn) [Example 154, (1-cyclopentylpiperidin-3-yl)(6-(hydroxymethyl)naphthalen-2-yl)methanone] showed an IC50 of 0.183 µM.
The molecule `O=C(c1ccc2c(Oc3ccccc3)cccc2c1)C1CCCN(CC2CC2)C1` (stereo not drawn) [Example 112, (1-(cyclopropylmethyl)piperidin-3-yl)(5-phenoxynaphthalen-2-yl)methanone] had an IC50 of 0.175 µM.
Regarding `CCCN1CC[C@H](C)[C@H](C(=O)c2ccc3c(CC#N)c(OC)ccc3c2)C1` (stereo in doubt) [Example 181b, 2-(2-methoxy-6-(4-methyl-1-propylpiperidine-3-carbonyl)naphthalen-1-yl)acetonitrile], the IC50 amounted to 0.0123 µM.
`CNC(=O)c1cc(C(=O)C2CCCN(C3CCC3)C2)cc2ccccc12` (stereo not drawn) [Example 42, 3-(1-cyclobutylpiperidine-3-carbonyl)-N-methyl-naphthalene-1-carboxamide] came in with an IC50 of 0.243 µM. This IC50 is about 20-fold higher than that of the molecule before.
Under `COc1ccc(C(=O)[C@H]2CCCN(C3CCC3)C2)c(OC)c1` [Example 11, [(3S)-1-cyclobutyl-3-piperidyl]-(2,4-dimethoxyphenyl)methanone] stands 0.153 µM.
